Measurements reported in article PMC8868400, “Structure–Activity Relationships and Transcriptomic Analysis of Hypoxia-Inducible Factor Prolyl Hydroxylase Inhibitors” (Antioxidants, 2022).
“And” between values parts separate entries of the source, which are not always exact repeats. Equal entries are not always repeated. “Also recorded” adds a separate entry of the source. Where two headings read alike, the source gives them in different places. One block for each compound: values may come before it.

Columns and labels:
[1] = test system: HIF1 ODD-luc reporter (intracellular HIF PHD), HIF1 ODD-luc/SH-SY5Y cell line; test: HIF1 ODD-luc reporter assay; format: cell-based, human; conditions: for Potency in HIF1 ODD-luc reporter assay (in words, comparative) / IC50: SH-SY5Y, 3 h incubation; for IC50: read-out: IC50 of HIF1 ODD-luc reporter activation; for Interference of free iron with reporter activation: cells loaded with ferrous sulfate 20 min before drug
Protocol: The reporter assay on the HIF1 ODD-luc/SH-SY5Y cell line was performed as described in [10]. Drugs were freshly prepared as 10 mM stock solutions in DMSO, and right before the experiment were diluted to 50×-fold to the final concentration in the well, so each well with 100 μL medium was inoculated with 2 μL of the drug solution. Cells were incubated for 3 h and then lysed and assayed for luciferase activity. To evaluate the effect of iron, the cells were loaded with the corresponding concentrations of ferrous sulfate in the medium for 20 min before the drug’s addition. All experiments were performed in triplicate. The fold activation with respect to the background luminescence in the presence 2 μL DMSO aliquot was plotted against drug concentrations. The results are shown as average ± SD.
The HIF1 ODD-luc reporter assay employs a cell line stably expressing a reporter vector providing the continuous production of an oxygen-dependent domain of HIF1α fused via its C-terminus to N-terminus of firefly luciferase. The steady-state level of the fusion protein depends on the ratio of the rates of its production (pcmv promoter) and degradation upon hydroxylation, binding to VHL and proteasomal degradation. […] Enzyme inhibition results in an immediate response in the form of luciferase fusion accumulation. The performance of the fusion reporter is equivalent to monitoring the actual fate of intracellular HIFs upon enzyme inhibition. […] However, both vadadustat and roxadustat worked in a very high micromolar range (IC50 above 30 μM). […] The use of high concentrations of the αKG mimetic drugs to overcome the competition from the intracellular αKG may result in targeting other αKG-dependent pathways that are unrelated to αKG-dependent dioxygenases, such as kynurenine-oxoglutarate transaminase and αKG dehydrogenase E1. In fact, DMOG is known to inhibit the αKG dehydrogenase complex and oxygen consumption by mitochondria. This plausible break in specificity could be a reason for concerns on the safety of HIF PHD inhibitor drugs in comparison with the use of recombinant EPO [17].

SH-SY5Y cells [2] = test: Oxygen-glucose deprivation (OGD) model, MTT viability; format: cell-based, human; conditions: 24 h pretreatment
Protocol: (§1) For oxygen-glucose deprivation (OGD) studies, 40,000 SH-SY5Y cells were plated in each well of 96-well plates. After overnight incubation, cells were treated with 1 and 3 μM concentrations of drugs for 24 h prior to OGD, at the onset of OGD, and at the onset of reperfusion. The compounds’ toxicity at the 1, 5, and 8 μM concentrations was assessed at 48 h. Oxygen glucose deprivation was performed as follows. The medium was replaced with DMEM containing no glucose, and then the cells were transferred to a sealed hypoxic chamber with 5% CO2-95% N2 atmosphere for 2 h. After 2 h incubation, the cells were removed from the hypoxic chamber and resupplied with a regular growth media for reperfusion/recovery. After 24 h incubation, cell viability was quantified using an MTT (4,5-dimethylthiazol-2-yl)-2,5-diphenyltetrazolium bromide, Sigma) assay.
The oxygen deprivation model (OGD) was performed using the human neuroblastoma SH-SY5Y cell line. […] The branched oxyquinoline drugs were added either 24 h before the onset of OGD, at the onset of ischemia induced by OGD insult, or with the reperfusion media at the end of OGD, as described in Methods and shown in Figure 6a.

SH-SY5Y cell line = test: Transcriptomic microarray analysis (Gene Chip Human Transcriptome Array 2.0); format: cell-based; conditions: for Number of downregulated genes / Number of upregulated genes: 0.5 mM DMOG, 30 μM roxadustat, 2 μM oxyquinolines; for Downregulated genes in common with hypoxia / Upregulated genes in common with hypoxia: hypoxia 2 h + 5 h; for Suppression of ATF4 signaling pathway: heatmap
Protocol: Transcriptomic microanalysis was performed as described in [12]. The human neuroblastoma SH-SY5Y cell line was grown on DMEM/F12 (Paneco Ltd., Moscow, Russia) containing 10% FBS (Thermo Fisher Scientific Inc., Waltham, MA, USA), and the cells were plated in 6-well plates (TPP, Russia) at a cell/well density of 500,000 the day before the drug treatment. The drugs—2 μM oxyquinoline(s), 30 μM (roxadustat), and 0.5 mM DMOG—were added to the cells in triplicate, and the cells were incubated for 5 h. The control wells contained 4 μL DMSO. The hypoxic conditions were created by incubation in 1% O2, 5% CO2, and 94% N2 atmosphere for 2 h (the medium was incubated under the same conditions for 16 h before addition to the cells). After 2 h hypoxia, the cells were returned to the original incubation conditions in a CO2 incubator and kept for another 5 h. After incubation, the cells were lysed with the Qiazol reagent (Qiagen N.V., Venlo, The Netherlands). The RNA was isolated using the RNeasy Micro Kit (Qiagen); the qualitative and quantitative analysis of the RNA was performed as described earlier. The RNA integrity number (RIN) values for all the samples were above 9.5. All steps of the sample preparation, hybridization, washing, staining, and microchip scanning were performed as described before. The mRNA expression profile was analyzed using the Gene Chip Human Transcriptome Array 2.0 (Thermo Fisher Scientific Inc., Waltham, MA, USA). The CEL files obtained during microchip scanning were treated with the Transcriptome Analysis Console 2.0 application (Thermo Fisher Scientific-Affymetrix, Santa Clara, CA, USA). Unannotated probe sets were excluded from the analysis. The results obtained were statistically processed using the TAC 4.0 software (Thermo Fisher Scientific). The statistical reliability for the differences in the expression levels between the intact cells and cells treated with the studied compounds was evaluated using the monofactorial analysis of variance (ANOVA) with the Benjamini–Hochberg correction. The significance threshold was 0.05.

[3] = set-up: method as in PMID 20416509; conditions: estimated; read-out: KD of iron chelation; cited from earlier work
SH-SY5Y cells [4] = test: Compound toxicity at 48 h incubation without OGD; format: cell-based, human; conditions: 8 μM
Protocol: as §1

[5] = 5 h treatment, 1.5-fold cut-off
[6] = 5 h treatment, 1.5-fold cut-off, listed as 570-0720
[7] = 5 h treatment, 1.5-fold cut-off, listed as FG

SMILES: Cc1ccnc(NC(c2ccc(C(C)(C)C)cc2)c2cc(Cl)c3cccnc3c2O)c1 (stereo not shown) [5-chloro-neuradapt]
Potency in HIF1 ODD-luc reporter assay (in words, comparative) [1]: almost as active as the original compound

SMILES: Cc1ccc2ccc(C(Nc3ccccn3)c3ccc(C(C)C)cc3)c(O)c2n1 (stereo not shown) [5704-0720]
IC50 ([1]; Homo sapiens, 3 h): 2000 nM | Potency in HIF1 ODD-luc reporter assay (in words, comparative) [1]: ca. two-fold less potent | Reduction in number of genes overlapped with roxadustat in comparison to isopropyl-neuradapt (SH-SY5Y cell line; 2 μM, 5 h): ~20% | Downregulated genes in common with DMOG (SH-SY5Y cell line; [5]): 38 genes | Downregulated genes in common with FG (roxadustat) (SH-SY5Y cell line; [5]): 60 genes | Upregulated genes in common with DMOG (SH-SY5Y cell line; [5]): 126 genes | Upregulated genes in common with FG (roxadustat) (SH-SY5Y cell line; [5]): 195 genes | Number of downregulated genes (SH-SY5Y cell line; [5]): 200–260 genes | Number of upregulated genes (SH-SY5Y cell line; [5]): 600–700 genes | Number of downregulated genes (SH-SY5Y cell line; [6]): 259 genes | Number of upregulated genes (SH-SY5Y cell line; [6]): 600 genes | Downregulated genes in common with hypoxia (SH-SY5Y cell line; [5]): 17 genes | Upregulated genes in common with hypoxia (SH-SY5Y cell line; [5]): 86 genes | Suppression of ATF4 signaling pathway (SH-SY5Y cell line; 5 h treatment): no suppression; also recorded: inactive

SMILES: Oc1cccnc1NC(c1ccc(Cl)cc1)c1ccc2cccnc2c1O (stereo not shown) [adaptaquin, reference compound]
Neuroprotection in OGD (SH-SY5Y cells [2]; 1–3 μM): 20–30%

SMILES: Cc1cc(C2CCCCC2)n(O)c(=O)c1 [ciclopirox]
Kd [3]: 50 nM

SMILES: Cc1ccc2ccc(C(Nc3ccccn3)c3ccc(C(C)C)cc3)c(O)c2n1 (stereo not shown) [compound 7]
Toxicity at prolonged incubation (SH-SY5Y cells [4]): least toxic

SMILES: Cc1ccnc(NC(c2ccc(C(C)(C)C)cc2)c2cc(Cl)c3cccnc3c2O)c1 (stereo not shown) [compound 8]
Toxicity at prolonged incubation (SH-SY5Y cells [4]): least toxic

Second part, led by results:

IC50 ([1]; Homo sapiens, 3 h): 1000 nM | IC50 [1]: < 1000 nM
SMILES: Cc1ccnc(NC(c2ccc(C(C)(C)C)cc2)c2ccc3cccnc3c2O)c1 (stereo not shown) [4896-3212]
Potency in HIF1 ODD-luc reporter assay (in words, comparative) [1]: submicromolar IC50 values | Interference of free iron with reporter activation [1]: interference of free iron with the reporter activation

IC50 ([1]; Homo sapiens, 3 h): 1000 nM
SMILES: Cc1ccnc(NC(c2ccc(C(C)C)cc2)c2ccc3cccnc3c2O)c1 (stereo not shown) [4896-3249]
Potency in HIF1 ODD-luc reporter assay (in words, comparative) [1]: equally active | viability at 3 µM (SH-SY5Y cells [2]; Homo sapiens, SH-SY5Y, 3 μM, insult alone 70%, MTT after 24 h recovery, read-out: Cell viability after OGD): 90% | Downregulated genes in common with 570-0720 (SH-SY5Y cell line; [5]): 231 genes | Downregulated genes in common with DMOG (SH-SY5Y cell line; [5]): 52 genes | Downregulated genes in common with FG (roxadustat) (SH-SY5Y cell line; [5]): 73 genes | Upregulated genes in common with 570-0720 (SH-SY5Y cell line; [5]): 524 genes | Upregulated genes in common with DMOG (SH-SY5Y cell line; [5]): 188 genes | Upregulated genes in common with FG (roxadustat) (SH-SY5Y cell line; [5]): 257 genes | Number of downregulated genes (SH-SY5Y cell line; [5]): 386 genes | Number of upregulated genes (SH-SY5Y cell line; [5]): 1092 genes | Downregulated genes in common with hypoxia (SH-SY5Y cell line; [5]): 31 genes | Upregulated genes in common with hypoxia (SH-SY5Y cell line; [5]): 152 genes | Suppression of ATF4 signaling pathway (SH-SY5Y cell line; 5 h treatment): inhibits several pro-death pathways with ATF4 being one of them; also recorded: enhanced suppression

IC50 [1]: 500000 nM
SMILES: COC(=O)CNC(=O)C(=O)OC [DMOG, dimethyl oxalylglycine, reference compound]
Potency in HIF1 ODD-luc reporter assay (in words, comparative) [1]: millimolar potency | Overlap of downregulated genes for the couple roxadustat and DMOG (SH-SY5Y cell line; 5 h treatment): 80% | Share of downregulated genes overlapping with hypoxia (SH-SY5Y cell line; 5 h treatment): ~50% | Share of upregulated genes overlapping with those induced by hypoxia (SH-SY5Y cell line; 5 h treatment): More than 30% | Downregulated genes in common with FG (roxadustat) (SH-SY5Y cell line; [5]): 160 genes | Upregulated genes in common with FG (roxadustat) (SH-SY5Y cell line; [5]): 476 genes | Number of downregulated genes (SH-SY5Y cell line; [5]): 200–260 genes and 204 genes | Number of upregulated genes (SH-SY5Y cell line; [5]): 600–700 genes and 608 genes | Downregulated genes in common with hypoxia (SH-SY5Y cell line; [5]): 104 genes | Upregulated genes in common with hypoxia (SH-SY5Y cell line; [5]): 279 genes | Suppression of ATF4 signaling pathway (SH-SY5Y cell line; 5 h treatment): weaker

IC50 ([1]; Homo sapiens, 3 h): > 30000 nM | IC50 ([1]; listed as Roxadustat): ~25000 nM | IC50 [1]: 30000 nM
SMILES: Cc1nc(C(=O)NCC(=O)O)c(O)c2ccc(Oc3ccccc3)cc12 [roxadustat, reference compound]
Interference of free iron with reporter activation [1]: not observed | Overlap of downregulated genes for the couple roxadustat and DMOG (SH-SY5Y cell line; 5 h treatment): 80% | Share of downregulated genes overlapping with hypoxia (SH-SY5Y cell line; 5 h treatment): ~50% | Share of upregulated genes overlapping with those induced by hypoxia (SH-SY5Y cell line; 5 h treatment): More than 30% | Number of downregulated genes (SH-SY5Y cell line; [5]): 200–260 genes | Number of upregulated genes (SH-SY5Y cell line; [5]): 600–700 genes | Number of downregulated genes (SH-SY5Y cell line; [7]): 209 genes | Number of upregulated genes (SH-SY5Y cell line; [7]): 714 genes | Downregulated genes in common with hypoxia (SH-SY5Y cell line; [5]): 96 genes | Upregulated genes in common with hypoxia (SH-SY5Y cell line; [5]): 261 genes | Suppression of ATF4 signaling pathway (SH-SY5Y cell line; 5 h treatment): weaker

IC50 ([1]; Homo sapiens, 3 h): > 30000 nM
SMILES: O=C(O)CNC(=O)c1ncc(-c2cccc(Cl)c2)cc1O [vadadustat, reference compound]
